The record followed here is paper PMC4499427 (Iranian Journal of Pharmaceutical Research : IJPR, 2015).

Converted amounts (≈) assume the structure as drawn. Like-named read-outs stand apart in the source and are kept apart here.

In data set [1] the test system is Mycobacterium bovis BCG (1173P2). The experiment in a line: microbe, parasite or virus in culture. The format is cell-based. The conditions noted are these: for MIC: Mycobacterium tuberculosis variant bovis BCG, BCG.
The nature of data set [2]: Cytotoxicity assay, MTT method. It counts as cell-based. To be noted: mouse, L929 fibroblast cells, Fibroblast L929 cell line. Here is the method:
(§1) The synthesized derivatives were assayed for their toxicity on Fibroblast L929 cell line by MTT [[…]] method. The cells were grown in RPMI1640 medium at 37 °C under 5% CO2 supplemented with 10% heat inactivated fetal bovine serum (FBS), 100 U/mL penicillin and 100 µg/mL streptomycin. Then, the cells were seeded into 96-well plates at a concentration of 6000 cells/well and allowed to incubate for 24 h. The medium was then discarded and different concentrations of test compounds in complete medium were added to each well. […] The produced formazan crystals were dissolved in 100 µL of DMSO. Plates were incubated for 20 min at 37 °C and the optical densities were read at 570 nm with a reference wavelength of 630 nm as background using a spectrophotometer plate reader (Infinite® M200, TECAN). Doxorubicin and cisplatin were used as positive controls and DMSO as the solvent of the test compounds and its final concentration was less than 0.2%. IC50 was calculated by GraphPad Prism 5.04 software. All the tests were performed in triplicates.
Background: Tetrazolium dyes change colour on reduction, which living cells bring about.

Data set [3] deals with Fibroblast L929 cell line. Briefly: Cytotoxicity assay, MTT method. The format is cell-based. The conditions noted are these: 48 h. Here is the method:
as §1

Where [4] appears, read: 24 h, read-out: Antimycobacterial activity MIC.
[5] abbreviates: 48 h, read-out: Antimycobacterial activity MIC.
Setting [6] is: Mycobacterium bovis BCG, read at 24 h after Alamar blue.
[7] abbreviates: Mycobacterium bovis BCG, read at 48 h after Alamar blue.
Setting [8] is: Mycobacterium bovis BCG, reading time not given.

By IC50 is commonly meant the midpoint of a concentration-inhibition curve. A high value points to weaker potency in that assay. For the compound `S=c1[nH]ncn1/N=C/C=C/c1ccccc1` [IIIe, 4-((E)-3-phenylallylideneamino)-1,2,4-triazole-5-thione], the MIC in data set [1] (setting [4]), in data set [1] (setting [5]) and in data set [1] (read-out: MIC value) was 62.5 µg/mL (≈ 271 µM) throughout. This compound came in with an IC50 at 48 h in data set [2] of 42.6 µg/mL (≈ 185 µM).
As to `Nn1cnnc1S` [Ia, 4-amino-1,2,4-triazole-5-thione], the MIC in data set [1] (setting [4]) and in data set [1] (setting [5]) was 62.5 µg/mL (≈ 538 µM) throughout. Besides, the half-maximal inhibitory concentration (IC50) at 48 h in data set [2] is greater than 100 µg/mL.
Usually melting point stands for the temperature, or range, at which the solid turns liquid. `S=c1[nH]ncn1N=Cc1ccncc1` [IIIc, 4-(pyridin-4-ylmethyleneamino)-1,2,4-triazole-5-thione] registered a melting point of 255 to 256 °C. Further, the MIC in data set [1] (setting [4]) was found to be 93.8 µg/mL (≈ 457 µM). The MIC in data set [1] (setting [5]) was 125 µg/mL (≈ 609 µM). Further, the IC50 at 48 h in data set [2] is greater than 100 µg/mL.
With `S=c1[nH]nc2n1N=C(c1ccc(Cl)cc1)CC2` [IIb, 6-(4-chlorophenyl)-7,8-dihydro-[1,2,4]triazolo[4,3-b]pyridazine-3-thione], the melting point is 256 °C (dec.). Moreover, the “antimycobacterial activity (in words)” value in data set [1] (Mycobacterium bovis BCG) is “inactive”. Further, in data set [1] (setting [4]), the MIC was greater than 500 µg/mL. Besides, the MIC in data set [1] (setting [5]) was greater than 500 µg/mL. For the same compound, the IC50 at 48 h in data set [2] was greater than 100 µg/mL.
As to `S=c1[nH]ncn1N=Cc1ccccn1` [IIIa, 4-(pyridin-2-ylmethyleneamino)-1,2,4-triazole-5-thione], the MIC is 62.5 µg/mL (≈ 305 µM) in data set [1] (setting [4]), 125 µg/mL (≈ 609 µM) in data set [1] (setting [5]) and 62.5 µg/mL (≈ 305 µM) in data set [1] (read-out: MIC value). In addition, the concentration for half-maximal inhibition (IC50) at 48 h in data set [2] is greater than 100 µg/mL.
Turning to `CCc1n[nH]c(=S)n1N` [Ic], the “Antimycobacterial activity MIC” value in data set [1] (setting [6]) and in data set [1] (setting [7]) was 62.5/62.5 µg/mL in each case. The “Cytotoxicity IC50” value in data set [3] is greater than 100 µg/mL.
`Nn1c(C(O)c2ccccc2)n[nH]c1=S` (centres unmarked) [Ie, 4-amino-3-(hydroxy(phenyl)methyl)-1,2,4-triazole-5-thione] came in with a melting point of 167 to 170 °C. Also, the MIC in data set [1] (setting [4]) was 62.5 µg/mL (≈ 281 µM). For the same compound, in data set [1] (setting [5]), the MIC is 62.5 µg/mL (≈ 281 µM). Besides, the IC50 at 48 h in data set [2] is greater than 100 µg/mL.
Take `S=c1[nH]ncn1N=Cc1cccnc1` [IIIb, 4-(pyridin-3-ylmethyleneamino)-1,2,4-triazole-5-thione]: the melting point was 157 °C (dec.). For the same compound, the MIC in data set [1] (setting [4]) worked out at 125 µg/mL (≈ 609 µM). For the same compound, in data set [1] (setting [5]), the MIC is 125 µg/mL (≈ 609 µM). For the same compound, the IC50 at 48 h in data set [2] was greater than 100 µg/mL.
For the compound `C[S+](C)[O-]` [DMSO], the “Antimycobacterial activity MIC” value is on record as 6.5/6.5 % v/v in data set [1] (Mycobacterium bovis BCG, 24 h, negative control DMSO) and 6.5/6.5 % v/v in data set [1] (Mycobacterium bovis BCG, 48 h, negative control DMSO).
`S=c1[nH]nc2n1N=C(c1ccccc1)CC2` [IIa, 6-phenyl-7,8-dihydro-[1,2,4]triazolo[4,3-b]pyridazine-3-thione]: the melting point was 253 °C (dec.). Moreover, the MIC in data set [1] (setting [4]) amounted to 62.5 µg/mL (≈ 271 µM). The MIC in data set [1] (setting [5]) amounted to 62.5 µg/mL (≈ 271 µM). Further, in data set [1] (read-out: MIC value), the MIC worked out at 62.5 µg/mL (≈ 271 µM). In data set [2], this compound yielded an IC50 at 48 h greater than 100 µg/mL.
Consider `Nn1c(Cc2cccs2)n[nH]c1=S` [If, 4-amino-3-(thiophen-2-ylmethyl)-1,2,4-triazole-5-thione], for which the melting point was 154 to 157 °C. For the same compound, the MIC in data set [1] (setting [4]) was found to be 62.5 µg/mL (≈ 294 µM). Also, in data set [1] (setting [5]), the MIC stood at 62.5 µg/mL (≈ 294 µM). In data set [2], this compound came in with an IC50 at 48 h greater than 100 µg/mL.
For `Nn1c(Cc2c[nH]c3ccccc23)n[nH]c1=S` [Id, 4-amino-3-(indol-3-ylmethyl)-1,2,4-triazole-5-thione], the melting point lay in the range of 172 to 175 °C. Further, the MIC in data set [1] (setting [4]) stood at 62.5 µg/mL (≈ 255 µM). The MIC in data set [1] (setting [5]) came to 62.5 µg/mL (≈ 255 µM). This compound also returned an IC50 at 48 h in data set [2] greater than 100 µg/mL.
`CC[C@@H](CO)NCCN[C@@H](CC)CO` [Ethambutol, reference compound]: the MIC in data set [1] (setting [4]) and in data set [1] (setting [5]) was 0.75 µg/mL (≈ 3.67 µM) throughout.
With `CC(=O)Nc1ccc(C=Nn2cn[nH]c2=S)cc1` [IIId, 4-(4-acetamidobenzyldeneamino)-1,2,4-triazole-5-thione], the “Antimycobacterial activity MIC” value in data set [1] (setting [6]) and in data set [1] (setting [7]) was 125/125 µg/mL each time. Also, in data set [3], the “Cytotoxicity IC50” value was greater than 100 µg/mL.
On to `Cc1n[nH]c(=S)n1N` [Ib], for which the IC50 value in data set [1] (setting [8]) was 31.25 µg/mL (≈ 240 µM). This compound gave an MIC value in data set [1] (setting [8]) of 31.25 µg/mL (≈ 240 µM). Moreover, the “Antimycobacterial activity MIC” value in data set [1] (setting [6]) and in data set [1] (setting [7]) was 31.25/31.25 µg/mL throughout. In addition, the “Cytotoxicity IC50” value in data set [3] is greater than 100 µg/mL.
